According to ChEMBL document CHEMBL1145147, “Cytotoxic neolignans: an SAR study” (Bioorg Med Chem Lett, 2005):

System: HepG2
Assay: Cytotoxicity of compound against human liver tumor cell line (Hep-G2) was determined
Type: functional, cell-based

Compared with `CCCc1ccc(O)c(-c2ccc(O)c(CCC)c2)c1`, `CCCc1ccc(O)c(-c2cc(CCC)ccc2O)c1` is 1.8-fold higher in IC50: 13.1 µM for the first, 23.4 µM for the second. The first is the more potent here.

`C=CCc1cc(OC)c(O)c(-c2cc(CC=C)cc(OC)c2O)c1` and `C=CCc1cc(O)c(O)c(-c2cc(CC=C)cc(O)c2O)c1` are within 1.5-fold of each other in IC50: 117 µM for the first, 104 µM for the second.

Going from `C=CCc1ccc(Oc2cc(CC=C)ccc2O)cc1` [ISOMAGNOLOL] to `C=CCc1ccc(O)c(-c2cc(CC=C)ccc2O)c1` [MAGNOLOL], the IC50 falls from 51.8 µM to 32 µM (1.6-fold). The second is the more potent here.

Compared with `Oc1ccccc1-c1ccccc1O`, `C=CCc1cccc(-c2cccc(CC=C)c2O)c1O` is lower in IC50: greater than 200 µM for the first, 42.1 µM for the second. The second is the more potent here.

Compared with `C=CCc1ccc(O)cc1` [CHAVICOL], `C=CCc1ccc(O)c(-c2ccc(O)c(CC=C)c2)c1` [HONOKIOL] is lower in IC50: greater than 200 µM for the first, 16.5 µM for the second. The second is the more potent here.

Compared with `C=CCc1ccc(OC)c(-c2cc(CC=C)ccc2OC)c1`, `C/C=C/c1ccc(O)c(-c2cc(/C=C/C)ccc2O)c1` is lower in IC50: greater than 200 µM for the first, 38 µM for the second. The second is the more potent here.
